Reference: a melting point compilation (Tetko et al.; mined from patent text by program, amines drawn as free bases though some values may be those of a salt)

Structure (SMILES) | melting point
O=c1[nH]nc(-c2cccc([N+](=O)[O-])c2)c2ncccc12 | 302 °C
Nc1cc2c(cc1C(=O)CNC(=O)C(F)(F)F)OCO2 | 219 to 220 °C
[N-]=[N+]=NCC(O)c1cc(S(N)(=O)=O)ccc1F (centres undefined) | 86 °C
CC=Cc1cn(C2CC(O)C(CO)O2)c(=O)[nH]c1=O (centres undefined) | 178 °C
Cc1cc(C)c(CNc2c(C)nn(C)c2NCC(C)(C)C)c(C)c1 | 114 to 120 °C
O=C(NCc1ccccc1)Nc1nnc(-c2ccc(CN3CCCCCC3)s2)o1 | 184 to 185 °C
O=c1cc(-c2ccc3nccnc3c2)oc2ncccc12 | 272 to 275 °C
CCCc1nc2ccc(Cl)nc2c(=O)[nH]1 | 264 to 266 °C
O=C(O)c1cccc(-c2ncco2)c1 | 187 to 188 °C
O=C(c1ccccc1)c1cc(-c2ccncc2)c(N2CCOCC2)s1 | 122 °C
Oc1ccc(C2CCC(NCC(O)Cc3ccccc3)CC2)cc1 (racemic) | 52 to 57 °C
O=C1NCN(c2ccccc2)C12CCN(CC1=Cc3cc(Cl)ccc3CC1)CC2 | 191 to 192 °C
CS(=O)(=O)N(N(CCCl)S(=O)(=O)c1ccccc1)S(C)(=O)=O | 114 to 115 °C
O=C(OCc1ccccc1)N(CCNC(=O)C(F)(F)F)CCNC(=O)C(F)(F)F | 131 to 132 °C
Cc1ccc(-c2nc3cccnc3n2CC(=O)O)s1 | > 250 °C
Fc1ccc(-c2ncn(CCN3CCOCC3)c2-c2ccncc2)cc1 | 114 to 115 °C
Cc1cc(Cn2[nH]c(N)cc2=O)ccc1Cl | 131 °C
O=Cc1ccn(C2=CC3=C(CC2)CCc2[nH]c(=O)c(=O)[nH]c23)c1 | > 250 °C
COC(=O)c1cc(OC)c(OCc2ccccc2)c(C23CC4CC(CC(C4)C2)C3)c1 | 229 °C
Cc1nccc2c1ccc(=O)n2C | 203 to 205 °C
CC(CC(=O)O)(C(=O)O)c1ccc(F)cc1 (centres undefined) | 149 to 152 °C
Fc1ccc(/C=C/C2=CCN(Cc3c[nH]c4ncccc34)CC2)cc1F | 208 to 210 °C
CC(C)(C)OC(=O)Nc1ccc(-c2ccco2)cc1[N+](=O)[O-] | 169 to 172 °C
C#CCOC1(Nc2cccc(OCC3CO3)c2)N=CC(Br)=CN1 (centres undefined) | 173 °C

Structure (SMILES) | melting point
COc1ccc(OC)c2c1CCOC2CCl (centres undefined) | 101 to 102 °C
CNC(=O)C(C)NC(=O)OC(C)(C)C (centres undefined) | 117 to 118 °C
O=C(O)c1cnncc1C(=O)c1cc(F)ccc1F | 202 to 205 °C
COc1ccc(C(=O)CI)cc1 | 63 to 65 °C
O=C(NCCC12CCC(=O)N1C(=O)CC2)OCc1ccccc1 | 118 to 120 °C
CCn1cc(-c2ccc(O)cc2)nc1SC | 218 °C
O=S(=O)(Nc1cc(Cl)sc1Cl)c1cc(-c2ncc(C(F)(F)F)cc2Cl)ccc1Cl | 106 to 108 °C
Nc1cc(OCC2=CCCSC2)c(Cl)cc1F | 73 to 74 °C
CN1C(=O)CC[C@]2(C)c3ccc(Sc4nc5ccccc5s4)cc3CC[C@@H]12 | 188 to 189 °C
Nc1c(N=O)c(=O)n(CC2CCCCCC2)c(=O)n1CC1CCCCCC1 | > 250 °C
Nc1ccc(CC2CCN(S(=O)(=O)N3CCCCC3)CC2)cc1 | 144 to 145 °C
C=CCNC(=O)c1ccc([N+](=O)[O-])cc1Br | 98 to 100 °C
Nc1ccc(Cl)cc1Cc1ccccc1F | 175 to 181 °C
Cc1cc2c(c(O)c1C=O)C(C)(C)CCC2(C)C | 91 to 92 °C
O=C(O)c1cccc(-c2cc([N+](=O)[O-])ccc2F)c1 | 272 to 274 °C
CCCC1=C(Cl)C(=O)c2oc(Cc3ccc(OC)c(Cl)c3)c(C)c2C1=O | 134 to 136 °C
O=C(NC1CN2CCC1CC2)c1cc(Cl)cc2oc(-c3ccccc3)nc12 (centres undefined) | 180 to 183 °C
O=c1ccc2c3ccccc3[nH]c2n1-c1ccccc1 | 308 to 309 °C
CCOC(=O)C=C(C)C=CC=C(C)C=Cc1c(C)c(C)c(OC)c(C)c1Cl | 90 °C
Cc1nc(Nc2ccc(F)cc2)nc(O)c1C | 256 °C
O=c1c2c(nc3c(O)cccn13)CCC2 | 136 to 142 °C
O=S1(=O)NC(Cl)=Nc2ccc(Cl)cc21 | 242 to 244 °C
c1ccc(Nc2nc(-c3cccnc3)nc3ccccc23)cc1 | 173 to 178 °C
N#CSCC(=O)c1ccc(Br)cc1 | 148 to 149 °C

Structure (SMILES) | melting point
CN1CNC(=N[N+](=O)[O-])N(Cc2ccc(Cl)nc2)C1 | 150 to 154 °C
Cc1noc(C)c1Cn1cc(N2C(=O)CN(CCc3cccc(F)c3)C2=O)cn1 | 110 to 111 °C
CS(=O)(=O)c1ccc(C2=C(I)C(=O)C3(CCOCC3)O2)cc1 | 210 to 213 °C
O=C(Nc1ccc(OC(F)(F)F)cc1)c1cccc(Cl)c1[N+](=O)[O-] | 171 to 172 °C
CC(O)CN1CCN(c2cccccc2=O)CC1 (centres undefined) | 92 to 93 °C
COc1cc(N)c(Cl)cc1C(C)=O | 114 to 116 °C
N#Cc1cc(Oc2ccccc2)ccc1O | 112 to 114 °C
O=C1CCCN(C(=O)c2ccc(Cl)cc2)C(=O)CCc2cc(Cl)ccc21 | 141 to 143 °C
CC(C)(C)OC(=O)[C@H]1CCCN1S(=O)(=O)c1ccc2c(Br)cnc(Cl)c2c1 | 128 to 130 °C
OC1CCCc2ccc(-c3ccc4nc(-c5ccc(Cl)cc5)cn4c3)cc21 (centres undefined) | 232 to 234 °C
Cc1cc(Cl)c(-n2nc(C#N)c(-c3ccco3)c2N)c(Cl)c1 | 192 °C
C1=C(c2ccccc2)CCN(CCCCc2ccncc2)C1 | 89 to 90 °C
CC(C)C(c1ccc(N)cc1)c1cccnc1 (centres undefined) | 102 °C
COc1cc(C=CC(=O)OCCCCBr)ccc1O | 86 to 89 °C
O=c1c(-c2cc[nH]n2)coc2ccccc12 | 141 to 142 °C
CC(=O)Cc1ccc(-c2noc3cc(Cl)ccc23)cc1 | 109 to 110 °C
Cc1n[nH]c(C)c1Oc1cc(Cl)cc(C#N)c1 | 136 to 140 °C
CC12C=CCC1C1CCC3=CC(=O)CCC3=C1CC2 (centres undefined) | 87 to 92 °C
OCC1OC(n2cnc3c(NC4CCCc5ccccc54)ncnc32)C(O)C1O (centres undefined) | 95.5 to 100 °C
CCC1(CCCCN2CCN(c3ccc(Cl)cc3)CC2)C(=O)Nc2cc(F)ccc21 (centres undefined) | 145 to 147 °C
COc1cccc2c1CCN(C(=O)C(F)(F)F)CC2 | 74 to 76 °C
COC(=O)N(c1cc(C)ccc1C#N)C(C)C | 100 to 101 °C
Clc1ccc(CO[C@H]2CO[C@@H](c3ccccc3)OC2)cc1 | 116 to 117 °C
O=C1c2cccc(N(CCO)CCO)c2OC12CC2 | 74 to 76 °C

Now from value to molecule:

melting point | Structure (SMILES)
> 300 °C | Nc1ncc(-c2nc(N3CCOCC3)c3sc(NS(=O)(=O)c4cccc(C=CC(=O)NO)c4)cc3n2)cn1
205 to 215 °C | COC(=O)CCc1cc2nc(Cl)ccc2n1S(=O)(=O)c1ccc2nc(N)sc2c1
107 to 108 °C | CCOP(C)(=O)CC(CCc1ccccc1)NS(=O)(=O)c1ccc(C)cc1 (centres undefined)
119 to 120 °C | CC(C)(C)OC(=O)NCCCC(c1cc(F)ccc1F)S(=O)(=O)c1ccc(Cl)cc1 (centres undefined)
238 to 239 °C | COc1ccc(C(=O)Nc2ncnc3c2ncn3[C@H]2CC[C@H](CC(=O)O)C[C@@H]2NC(=O)OC(C)(C)C)cc1
102 to 104 °C | Cc1cc(CCCCCOc2ccc(C3=NCCO3)cc2)on1
99 to 100 °C | CCOCc1nc2c(N)nc3ccccc3c2n1C[C@@H](O)CO
190 to 191 °C | COCc1c(C(O)c2ccccc2)ncc2[nH]c3ccc(OCc4ccccc4)cc3c12 (centres undefined)
139 to 140 °C | CC(C)(C)OC(=O)Nc1ccc2ccc(S(=O)(=O)N(Cc3ccccc3)Cc3ccccc3)cc2c1
107 to 108 °C | COc1cccc(OCCCN2CCC(C(O)(c3ccc(F)cc3)c3ccc(F)cc3)CC2)c1
160 °C | COc1ccc(C(=O)C=C2c3ccccc3C(=O)c3ccccc32)cc1OC
71 to 72 °C | COc1ccc(C(=O)c2c(F)cccc2F)c(O)c1
215 to 229 °C | COc1cc2ccc(C(=O)CCC(=O)O)cc2cc1OC
130 °C | Fc1ccc(OCCCN2CCC(CNc3nc4ccccc4s3)CC2)c(OCc2ccccc2)c1
153 to 155 °C | CC(C)(O)Cn1c(CO)nc2c(N)nc3cc(-c4cccc(C(=O)N5CCOCC5)c4)cnc3c21
92 to 94 °C | CCCN(CC(O)COc1ccc2c(=O)cc(-c3ccccc3)oc2c1)C(=O)OCc1ccccc1 (centres undefined)

melting point | Structure (SMILES)
99 to 100 °C | CC(C)(C)OC(=O)N[C@@H](CC(=O)OCc1ccccc1)C(=O)NCCc1ccc(C(=O)OCc2ccccc2)cc1
214 to 217 °C | Oc1ccc(Sc2ccc(-c3ccc(Sc4ccc(O)cc4)cc3)cc2)cc1
148 to 150 °C | CCN(c1ccc(Cl)cc1C(N)=O)S(=O)(=O)c1ccc(C)cc1
> 310 °C | O=C1c2ccccc2C(=O)c2c1oc1cc(O)ccc21
162 to 164 °C | COc1ccc(CCNC(=O)CCCCC(=O)NC2Cc3ccccc3C2)cc1OC
221 °C | O=C(Nc1nn(-c2ccccc2)cc1C(=O)O)OCc1cc2cc(-c3ccccc3)ccc2o1
109 to 110 °C | COC(=O)CC(C#Cc1ccc(C(=O)O)cc1)c1ccc(OC)c(OC2CCCC2)c1 (racemic)
69 to 71 °C | CCCCCN(CCCCC)C(=O)C(CCC(=O)O)CS(=O)(=O)c1ccc(C(C)=O)cc1 (centres undefined)
90 to 96 °C | CCOC(=O)COc1ccc(Cn2c(-c3ccc(OC)cc3)c(C)c3cc(OCc4ccccc4)ccc32)cc1
125 °C | CCCCCCCNC(=O)Nc1ccccc1C(=O)N1CCCN(C(c2ccccc2)c2ccccc2)CC1
247 to 249 °C | NS(=O)(=O)c1ccc(-n2nc(C(F)F)cc2-c2nc3ccccc3s2)cc1
101 to 105 °C | CCOC(=O)C(CC)Oc1ccc(-c2nc(-c3ccc(OC(CC)C(=O)OCC)cc3O)nc(-c3ccc(OC(CC)C(=O)OCC)cc3O)n2)c(O)c1 (centres undefined)
130 to 132 °C | c1ccc(OCCSCc2nnc(-c3ccc4[nH]ccc4c3)o2)cc1
174 to 175 °C | COc1ccc2nc(-c3cccc4ccccc34)[nH]c(=O)c2c1
195 to 196 °C | COC(=O)c1ccc(-c2nc(-c3ccc(C(C)(C)C)cc3)no2)c(N)c1
105 to 106 °C | CCCn1nc(-c2ccc(OC)cc2)cc(C(=O)OC)c1=O
